Test results reported in patent publication US5736556A, “Tropane-2-aldoxime derivatives as nevro transmitter reuptake inhibitors” (NeuroSearch A/S, priority 1994, dated 1998).

Legend:
[1] = target: T1, dopamine transporter (^3 H-dopamine uptake) (Rattus norvegicus, UniProt P23977); assay: In vitro inhibition of ^3 H-dopamine (^3 H-DA) uptake in striatal synaptosomes; format: biochemical, rat (male Wistar); conditions: ^3 H-DA 1 nM, 25 min at 37° C.
T1 construct: Corpi striati from male Wistar rats (150-200 g) are homogenized; from tissue; host or cells: P2 synaptosomes of corpus striatum, male Wistar rats
Excerpt: (§1) The compounds of the invention have also been tested for their ability to inhibit reuptake of dopamine(DA) noradrenalin(NA) and serotonin(5-HT) in synaptosomes.
(§2) Specific neurotransmitter transporters/uptake sites on nerve terminals presumably function to terminate neuronal signaling by removing the neurotransmitters dopamine, noradrenaline and serotonin, respectively, from the synaptic cleft. The activity of the transporter integral proteins can be measured in vitro by synaptosomal uptake of ^3 H-dopamine, ^3 H-noradrenaline and ^3 H-serotonine, respectively.
In vitro inhibition of ^3 H-dopamine (^3 H-DA) uptake in striatal synaptosomes
(§3) Tissue preparations: Preparations are performed at 0°-4° C. unless otherwise indicated. Corpi striati from male Wistar rats (150-200 g) are homogenized for 5-10 sec in 100 volumes of ice-cold 0.32M sucrose containing 1 mM pargyline using an Ultra-Turrax homogenizer. Monoamine oxidase activity will be inhibited in the presence of pargyline. The homogenate is centrifuged at 1000×g for 10 min. The resulting supermatant is then centrifuged at 27,000×g for 50 min and the supernatant is discarded. The pellet (P2) is resuspended in oxygenated (equilibrated with an atmosphere of 96% O2 : 4% CO2 for at least 30 min) Krebs-Ringer incubation buffer (8000 ml per g of original tissue) at pH 7.2 containing 122 mM NaCl, 0.16 mM EDTA, 4.8 mM KCl, 12.7 mM Na2 HPO4, 3.0 mM NaH2 PO4, 1.2 mM MgSO4, 1 mM CaCl2, 10 mM glucose and 1 mM ascorbic acid.
(§4) Assay: Aliquots of 4.0 ml tissue suspension are added to 100 μl of test solution and 100 μl of ^3 H-DA (1 nM, final concentration), mixed and incubated for 25 min at 37° C. Non-specific uptake is determined using benztropine (10 μM, final concentration). After incubation the samples are poured directly onto Whatman GF/C glass fibre filters under suction. […] The amount of radioactivity on the filters is determined by conventional liquid scintillation counting. Specific uptake is calculated as the difference between total uptake and non-specific uptake. […]

[2] = target: T2, ^3 H-noradrenaline uptake (noradrenaline transporter) (Rattus norvegicus, UniProt Q63380); assay: In vitro inhibition of ^3 H-noradrenaline (^3 H-NA) uptake in hippocampal synaptosomes; format: biochemical, rat (male Wistar); conditions: ^3 H-NA 1 nM, 90 min at 37° C.
T2 construct: Hippocampi from male Wistar rats (150-200 g) are homogenized; from tissue; host or cells: P2 synaptosomes of hippocampus, male Wistar rats
Excerpt: as §1, §2
In vitro inhibition of ^3 H-noradrenaline (^3 H-NA) uptake in hippocampal synaptosomes
as §3, with “Tissue preparation:” for “Tissue preparations:”, “indicated. Hippocampi” for “indicated. Corpi striati”, “resulting supernatant” for “resulting supermatant”, “buffer (2000” for “buffer (8000”, “MgSO4, 0.97” for “MgSO4, 1”
as §4, with “H-NA” for “H-DA”, “90” for “25”, “desipramine (1” for “benztropine (10”

[3] = tested on: MPTP-induced Parkinsonism in Marmoset Monkeys; assay: Antagonism of MTPT-induced Parkinsonism in Marmoset Monkeys; format: in vivo, common marmoset; conditions: MPTP-treated marmosets, oral gavage, 0.1 to 2.5 mg/kg; for locomotor activity: 10 h
Excerpt: Antagonism of MTPT-induced Parkinsonism in Marmoset Monkeys
Administration of MPTP (1-methyl-4-phenyl-1,2,3,6-tetrahydropyridine, hydrochloride) to monkeys induce a lesion of the dopaminergic system in the brain and gives rise to parkinsonian symptoms. By subsequent administration of test-compounds, the ability of the compounds to alleviate the parkinsonian signs can be tested.
Common marmosets (weighing 350-400 g, aged 3-5 years and of either sex) were used in the study. Animals were housed alone under standard conditions at a temperature of […] and 50% relative humidity using a 12 hour light-dark cycle. Animals had free access to food and Water.
Some months before locomotor or behavioural testing began, animals were treated with MPTP (1-methyl-4-phenyl-1,2,3,6-tetrahydropyridine, hydrochloride) dissolved in sterile 0.9% saline in doses of 2 mg/kg administered subcutaneously daily for 5 days or until a clear parkinsonian state developed. The cumulative doses administered ranged between 8-12 mg/kg. During MPTP treatment and throughout the following 2-3 weeks the animals were hand fed until they had recovered enough to be able to feed themselves.
Test compounds was dissolved in 100% Tween 80 with warming to 40°-50° C. and then diluted with water. Test compounds was given by oral gavage in a volume of 2 ml/kg. In addition test compound vehicle was administered on each experimental day for comparison with drug treatments. Each animal was treated with vehicle or one of the three doses of test compound over the following weeks, with a one week period of recovery between treatments.
Rating of disability: The disability of animals were scored as follows; alertness (normal 0, sleepy 2); reaction to stimuli (normal 0, reduced 1, slow 2, absent 3); checking movements (present 0, reduced 1, absent 2); attention and eye movements (normal 0, abnormal 1); posture (normal 0, abnormal trunk 1, abnormal limbs 1, abnormal tail 1, or grossly abnormal 4); balance/coordination (normal 0, impaired 1, unstable 2, spontaneous falls 3); vocalization (normal 0, reduced 1, absent 2).
Measurement of locomotor activity: Locomotor activity was measured simultaneously for four individual animals each in a metal cage (50 w×60 l×70 h cm) with transparent plastic doors (50 w×70 h cm) similar to the home cages but fitted with eight horizontally orientated infrared photocells. […] Locomotor counts were measured as the number of light beam interuptions which occured as the animals moved about. These movement counts were accumulated in 30 minutes intervals and recorded for the 10 h duration of experimentation.
Data analysis: The mean (±) s.e.m. was calculated for time courses and accumulated locomotor counts or behavioural disability scores for the different treatment groups.

[4] = tested on: stereotyped behaviour of the rat; assay: Abnormal stereotyped behaviour (side effect profile); format: in vivo; set-up: key to Activity (high intensity stereotypy): +: only stereotyped sniffing; ++: stereotyped sniffing and episodic licking; +++: continuous licking and/or biting gnawing
Excerpt: Side Effect Profile of the Compounds of the Present Invention
The side effects of cocaine and the central stimulant amphetamine derivatives involve central excitement and stimulation in animals including primates and these effects can also be observed in humans. A serious side effect of cocaine and of the amphetamine derivatives includes also the ability to provoke toxic psychotic symptoms closely resembling the mental disease schizophrenia and these include halucinations, paranoia and abnormal bizarre stereotyped mental activity and stereotypy.
The induction of stereotyped abnormal behavior in rodents thus also represents one of the most used animal models of schizophrenia in models for antipsychotic neuroleptic drugs (including haloperidol and chlorpromazine).
The development of toxic abnormal stereotyped amphetamine syndrome as described below may predict a toxic central stimulant side effect of dopamine releasing compounds in humans.
Classification of the Abnormal Stereotyped Behaviour
In general, the abnormal stereotyped behaviour after administration of amphetamine and cocaine-like central stimulant drugs can be classified into "low" and "high" intensity scores of stereotyped behaviour. […]

[5] = target: T3, dopamine transporter (Rattus norvegicus, UniProt P23977); conditions: background, in vitro, in words; cited from earlier work
T3 construct: Corpus striatum from male Wistar rats (150-200 g) is homogenized; from tissue; host or cells: corpus striatum of male Wistar rats

[6] = target: dopamine transporter (Mus musculus, UniProt Q61327); conditions: cited from earlier work
[7] = target: T1, dopamine transporter (^3 H-dopamine uptake); conditions: background, in words; cited from earlier work

dopamine transporter (Mus musculus, UniProt Q61327), sequence (Q61327 whole entry): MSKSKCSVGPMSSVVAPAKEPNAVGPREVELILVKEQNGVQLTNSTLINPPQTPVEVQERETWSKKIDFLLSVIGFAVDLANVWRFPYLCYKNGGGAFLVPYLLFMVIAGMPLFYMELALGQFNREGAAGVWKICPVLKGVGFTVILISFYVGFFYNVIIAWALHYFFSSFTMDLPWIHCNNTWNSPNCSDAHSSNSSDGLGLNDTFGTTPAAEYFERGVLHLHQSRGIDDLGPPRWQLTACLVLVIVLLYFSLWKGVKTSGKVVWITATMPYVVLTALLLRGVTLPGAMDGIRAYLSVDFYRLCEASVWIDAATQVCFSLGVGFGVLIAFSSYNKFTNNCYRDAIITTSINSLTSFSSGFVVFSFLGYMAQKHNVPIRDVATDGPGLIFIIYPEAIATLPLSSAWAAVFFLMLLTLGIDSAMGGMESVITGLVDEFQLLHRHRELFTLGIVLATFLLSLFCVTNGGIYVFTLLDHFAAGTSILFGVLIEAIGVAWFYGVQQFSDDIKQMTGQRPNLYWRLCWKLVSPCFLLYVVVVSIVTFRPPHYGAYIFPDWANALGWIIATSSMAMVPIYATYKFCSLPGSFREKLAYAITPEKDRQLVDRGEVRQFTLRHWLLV
T1 sequence (P23977 whole entry): as the sequence (Q61327 whole entry) above, with P21S, V57A, S194A, R600H, V619L counted along it
T3 sequence (P23977 whole entry): as the sequence (Q61327 whole entry) above, with P21S, V57A, S194A, R600H, V619L counted along it
T2 sequence (Q63380 1-617): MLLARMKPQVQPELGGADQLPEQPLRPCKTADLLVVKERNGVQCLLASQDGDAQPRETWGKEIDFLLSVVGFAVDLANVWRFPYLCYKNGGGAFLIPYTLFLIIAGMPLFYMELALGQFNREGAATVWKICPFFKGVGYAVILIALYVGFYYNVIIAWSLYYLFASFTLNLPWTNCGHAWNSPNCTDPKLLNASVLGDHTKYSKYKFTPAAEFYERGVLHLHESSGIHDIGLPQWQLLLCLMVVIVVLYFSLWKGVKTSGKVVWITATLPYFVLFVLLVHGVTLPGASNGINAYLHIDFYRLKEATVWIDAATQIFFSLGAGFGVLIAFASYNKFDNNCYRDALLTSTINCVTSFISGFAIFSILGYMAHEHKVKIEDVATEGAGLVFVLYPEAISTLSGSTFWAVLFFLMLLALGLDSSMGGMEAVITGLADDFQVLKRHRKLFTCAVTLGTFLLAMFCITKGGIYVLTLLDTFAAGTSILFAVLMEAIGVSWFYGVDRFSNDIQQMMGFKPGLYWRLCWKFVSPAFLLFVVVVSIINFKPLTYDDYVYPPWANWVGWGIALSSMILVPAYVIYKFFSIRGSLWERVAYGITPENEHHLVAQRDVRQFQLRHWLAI

Work on `CON=C[C@@H]1[C@@H](c2ccc(Cl)c(Cl)c2)C[C@@H]2CC[C@H]1N2C` (single isomer, unassigned) [(1R,2R,3S)-3-(3,4-dichlorophenyl)-tropane 2-O-methyl-aldoxime, syn-isomere] yielded an IC50 [1] of 3.4 nM and an IC50 [2] of 1.5 nM.
With `CON=C[C@@H]1[C@@H](c2ccc(Cl)c(Cl)c2)C[C@@H]2CC[C@H]1N2C` [NS2214, (1R,2R,3S)-3-(3,4-dichlorophenyl)tropane-2O-methyl-aldoxime] the disability scores [3] was “dose-dependent decrease in disability scores”, the locomotor activity [3] was “dose dependent increase in locomotor activity” and the locomotor activity ([3]; listed as NS 2214) was “dose-dependent increase in locomotor activity”. The disability scores ([3]; listed as NS 2214) was “dose dependent decrease in disability scores”, the “Activity (high intensity stereotypy)” value ([4]; 15 mg/kg p.o.) was “+++” and the “lowest dosis giving the activity indicated (stereotypy +++)” value ([4]; p.o.) was 15 mg/kg.
For `COC(=O)[C@H]1[C@@H](c2ccc(F)cc2)C[C@@H]2CC[C@H]1N2C` [^3 H-WIN 35428], the “binding to the dopamine transporter” value [5] is given as “binds selectively and with high affinity to the dopamine transporter complex” and the “time to maximum of specific binding in the striatum” value ([6]; in vivo, iv) is given as 30 min.
For `COC(=O)[C@H]1[C@@H](OC(=O)c2ccccc2)C[C@@H]2CC[C@H]1N2C` [cocaine], the “binding to the dopamine transporter” value [5] is listed as “binds to the dopamine transporter”, the “inhibition of ^3 H-dopamine uptake” value [7] is listed as “inhibits ^3 H-dopamine uptake” and the “prevention of specific binding of ^3 H-WIN 35428 in vivo” value [6] is listed as “partly or completely prevented”.
